Results on one molecule are retold here after patent US20170037446A1, “METHOD FOR THE MICROBIOLOGICAL DETERMINATION OF TRACES OF A[…] LOW VOLUME BIOLOGICAL SAMPLES” (UNIVERSIDAD DE SANTIAGO DE CHILE, priority 2013, published 2017).

The series is described as follows: Pharmacokinetic study of minocycline in CSF of rats, quantified by the microbiological method with 4PL curve fit. In kind it is in vivo. The settings on record: normal Sprague-Dawley rats, intra CSF injection of 1 mg/mL MC solution. As to the method: A curve representing the percentage of bacterial growth inhibition versus antibiotic concentration applied to each well was also obtained.. Subsequently, using a curve fit analysis called “Four Parameter Curve Logistic (4PL)”, the values of antibiotic concentrations in the biological sample were obtained.
Cerebrospinal fluid (CSF) collection: It was collected by transcutaneous cisternal magna puncture. Minocycline injections were performed by the same route.
Curve fitting: Four Parameter Logistic Curve (4PL) analysis was applied to minocycline antibiotic obtained from FIG. 1:
Minocycline (MC), an antibiotic belonging to the family of tetracyclines, was used to carry out pharmacokinetic studies of CSF in Sprague-Dawley rats. Briefly, normal rats were injected via intra CSF an MC solution of 1 mg/mL, for subsequent sampling of CSF at time zero, 1, 10 and 18 hours. […] At 18 hours it is still possible to detect a concentration of 69 ng/mL (FIG. 4).

For the molecule `CN(C)c1ccc(O)c2c1C[C@H]1C[C@H]3[C@H](N(C)C)C(O)=C(C(N)=O)C(=O)[C@@]3(O)C(O)=C1C2=O` [Minocycline], the “detection of MC in CSF” value (CSF sampled at time zero, 1, 10 and 18 hours) was “detected at all times”. Where the note is “rat, cerebrospinal fluid (CSF), other: intra CSF (transcutaneous cisternal magna puncture), CSF sampled at 18 hours (FIG. 4)”, this molecule registered a concentration at 18 h of 69 ng/mL.
